5 molecules from patent publication US11262348B2, “Cell-based assays for detection of antibodies or other factors that neutralize uptake of lysosomal enzymes” (BIOMARIN PHARMACEUTICAL INC., priority 2015, dated 2022) can be followed below.

“Also recorded” adds a separate entry of the source.

A word on the IC50: it is the concentration that inhibits the measured activity by half. High values mean a need for much substance, low ones inhibition by little substance.

For assay [1], the system named is Jurkat cells. In words: Cell-based flow cytometry assay of Alexa488-rhGALNS uptake (screening assay, % SI). Details: species or system human. On the procedure:
Cell uptake of rhGALNS is measured using flow cytometry to determine the amount of fluorophore-conjugated rhGALNS taken up by Jurkat cells. Jurkat cells are a non-adherent human T cell line that express CI-MPR, which binds and targets rhGALNS to the lysosome. rhGALNS neutralizing antibodies (NAb) are detected in samples by a decrease in fluorophore-conjugated rhGALNS uptake (calculated as % inhibition) that exceeds the screening cut point (SCP).
For a 1:1 dilution, 60 μL per well of controls were added in duplicate or in quadruplicate for 2 sets into the appropriate wells. Similarly, for a 1:1 dilution of sample, 60 μL per well of patient screening samples were added into the appropriate wells. For a 1:1 dilution for the confirmation assay, 60 μL per well of patient confirmation samples were added in duplicate into the corresponding wells. The plate was covered, wrapped in foil and allowed to incubate overnight for 14 to 20 hours at 2-8° C.
Assay: Prior to the sample incubation step, the cell plates were removed from the CO2 incubator and observed to ensure the cells were healthy and viable. […] After the incubation was completed, the cells were washed in PBS by centrifuging the plate for 6 min at 310×g in a tabletop centrifuge at 14 to 18° C., repeated two to five times as appropriate. After the last wash, the plate was removed from the centrifuge, the cell pellet resuspended in 100 μL viability stain (red fluorescent reactive dye 1:1000 dilution) and tested for viability. Once viability testing was complete, the cells were centrifuged 6 min at 310×g in a tabletop centrifuge at 14 to 18° C.
Percent Signal Inhibition (% SI) is calculated as [% SI=1—mean median fluorescence intensity (MFI) of sample/mean MFI of control×100]. Confirmatory assay data were analyzed as recovery ratio, defined as mean confirmatory assay MFI of sample/mean screening assay MFI of sample. The titer was calculated as the interpolated dilution factor at which the sample crossed the titer cut point determined by linear regression analysis (Microsoft Excel).

The subject of assay [2] is Jurkat cells. In words: Flow cytometry uptake of labeled GAA with IGF-II tag. The format is cell-based, human. To be noted: for inhibition of rhGAA-IGF-II uptake (in words): Jurkat cells (Jurkat and HepG2 not distinguished); for inhibition of uptake: rhGAA-IGF-II uptake into Jurkat cells. As to the method:
The assay was also validated for a CI-MPR ligand that is not mannose-6 phosphate. The ability of CI-MPR expressing Jurkat or HepG2 cells were analyzed by flow cytometry for their ability to take up labeled GAA comprising an IGF-II tag, which facilitates binding to the CI-MPR. […] This uptake was inhibited by unlabeled GAA as well as anti-IGFII antibody.
(In general: In flow cytometry, cells or beads pass a laser one at a time.)

Consider `O=C[C@@H](O)[C@@H](O)[C@H](O)[C@H](O)COP(=O)(O)O` [M6P, mannose-6-phosphate, reference compound], for which the “inhibition of rhGALNS uptake into Jurkat cells (in words)” value with Jurkat cells [1] is “dose dependent effect; also recorded: dose dependently abrogated; also recorded: completely blocked”. For the same molecule, the figures for the “inhibition of rhGALNS uptake” value with Jurkat cells [1] (0.5M M6P) and with Jurkat cells [1] (5M M6P) were “approximately 32%” and “approximately 96%”, respectively. The same molecule registered an IC50 in the assay on Jurkat cells [1] (Homo sapiens, Jurkat cells) of 453 µM. For the same molecule, the “inhibition of rhGAA-IGF-II uptake (in words)” value in the assay on Jurkat cells [2] is “partial inhibition”.
Consider `C=C1[C@@H](C)[C@H]2[C@H](Cc3ccccc3)NC(=O)[C@]23OC(=O)/C=C/[C@H](O)CCC[C@@H](C)C/C=C/[C@H]3[C@@H]1O` [cytochalasin B, reference compound], for which the “MFI signal emitted from Alexa488-rhGALNS-treated cells” value in the assay on Jurkat cells [1] (374 μM cytochalasin B, pretreated 1 hour) is 777±4.2.
Take `Cc1cc(-c2ccc(/N=N/c3c(S(=O)(=O)O)cc4cc(S(=O)(=O)O)cc(N)c4c3O)c(C)c2)ccc1/N=N/c1c(S(=O)(=O)O)cc2cc(S(=O)(=O)O)cc(N)c2c1O` [trypan blue, reference compound]: the “fluorescence of cells treated with Alexa488-labeled anti-CD3” value in the assay on Jurkat cells [1] (increasing concentrations of trypan blue) is given as “reduced”. The “impact on Alexa488-rhGALNS MFI values” with Jurkat cells [1] (trypan blue up to 0.4%) is “no impact”.
As to “IGF-II: CI-MPR ligand tested as a possible neutralizing factor”, the “inhibition of rhGALNS uptake into Jurkat cells (in words)” value with Jurkat cells [1] is reported as “partial inhibition”. Further, the inhibition of uptake result in the assay with Jurkat cells [2] (0.6M excess IGF-II) is listed as “approximately 58%”; in the assay with Jurkat cells [2] (50M excess IGF-II), “approximately 95%”. For the same molecule, the “inhibition of rhGAA-IGF-II uptake (in words)” value in the assay with Jurkat cells [2] is given as “dose dependent effect”.
On to “unlabeled GAA: unlabeled acid alpha glucosidase used as a competitor of GAA-IGFII uptake”, for which, in the assay with Jurkat cells [2], the “inhibition of rhGAA-IGF-II uptake (in words)” value is given as “inhibited”.
